Experimental data published in publication PMC4431585, “Identification and Characterization of a Small-Molecule Inhibitor of Death-Associated Protein Kinase 1” (Chembiochem, 2014).
Entries after “also recorded” stand apart in the source; their conditions may differ.

Experiments:
[1] = target: T1, DAPK1 (Homo sapiens, UniProt P53355); assay: In vitro phosphorylation assay with DAPK1 (analytical HPLC); type: biochemical; details: for phosphorylation by DAPK1 (peptide as substrate): peptide 50 μM, ATP 100 μM, n=3
T1 construct: First the catalytic domain of DAPK1 (residues 1–285) was cloned,[14] expressed in Escherichia coli, and purified; made in house; host or cells: Escherichia coli
From the text: CaMKII and DAPK1 share a number of notable structural and functional properties. In particular both kinases harbor a calmodulin-binding sequence and an autoregulatory domain (ARD) next to the catalytic domain and are therefore regulated by calmodulin (or proteins with calmodulin-like domains).[10] There are also notable differences between the two kinases, for example DAPK1 is active only in its non-phosphorylated form,[11] whereas activation of CaMKII is more complex.[12] […] Thus it is proposed that phosphorylation of Ser1303 and co-localization are responsible for the regulation of calcium influx by NMDA receptors (Figure 1). To investigate the mechanistic details of DAPK1/NMDA receptor interactions further, including differences between GluN2A and GluN2B, we used in vitro phosphorylation assays. First the catalytic domain of DAPK1 (residues 1–285) was cloned,[14] expressed in Escherichia coli, and purified; the reference substrate Peptide38[2d] ([…]) and the 13-mer peptide N2B13 (1, GluN2B1292–1304, […]; Figure 2 A) were prepared. […] Thus, clearly Ser1303 in 1 is not phosphorylated by DAPK1 in vitro.
(§1) Figure 2 Comparison of peptide substrates containing Ser1303 (GluN2B) or Ser1291 (GluN2A). A) Alignment of peptides used in in vitro phosphorylation studies. B) Phosphorylation by DAPK1. C) Phosphorylation by CaMKII. Control substrates are shown with dashed lines. Degrees of phosphorylation were assessed by analytical HPLC (n=3, mean±SD). Concentration: peptide 50 μM, ATP 100 μM, kinase concentration was adjusted to fit the timescale. For further details see the Supporting Information.
(§2) This prompted us to examine related peptides derived from GluN2B and GluN2A (Figure 2 A) and we compared in vitro phosphorylation of these peptides by using both recombinant DAPK1 and CaMKII. […] Next we studied the corresponding 13- and 23-mer GluN2A peptides, N2A13 (4, GluN2A1280–1292, […]) and N2A23 (5, GluN2A1280–1302, […]); for both, Ser1291 corresponds to Ser1303 in GluN2B.

[2] = tested on: CAMKII; assay: In vitro phosphorylation assay with CaMKII (analytical HPLC); type: biochemical; details: peptide 50 μM, ATP 100 μM, n=3
Protocol: as §1, §2

[3] = target: T1, DAPK1; assay: Caliper microfluidics capillary electrophoresis high-throughput enzymatic assay for DAPK1; type: biochemical
From the text: For this, we established a high-throughput enzymatic screening assay for DAPK1. […] This peptide was used in a Caliper microfluidics capillary electrophoresis assay, which separates phosphorylated peptide product from the non-phosphorylated peptides in microcapillaries. The fluorescently labeled peptide enabled quantification in real time and thus determination of reaction velocities.

[4] = target: PIM1 (Homo sapiens, UniProt P11309); assay: Kinase selectivity screening, PIM1; type: biochemical
Protocol: (§3) Compound 6 was tested in primary screening against a number of other kinases (SRC, BLK, AKT3, JAK2, PAK4, PAK7, PIM1, PIM2, CAMKI, and CAMKII); 60 % inhibition at 10 μM compound was used as the cut-off limit. […] Thus 6 was clearly an interesting compound.

[5] = target: JAK2 (Homo sapiens, UniProt O60674); assay: Kinase selectivity screening, JAK2; type: biochemical
Protocol: as §3

[6] = target: PAK7 (Homo sapiens, UniProt Q9P286); assay: Kinase selectivity screening, PAK7; type: biochemical
Protocol: as §3

[7] = target: SRC (Homo sapiens, UniProt P12931); assay: Kinase selectivity screening, SRC; type: biochemical
Protocol: as §3

[8] = tested on: CAMKII; assay: Kinase selectivity primary screening, CAMKII; type: biochemical; details: 60 % inhibition at 10 μM compound as cut-off limit
Protocol: as §3

[9] = target: T2, catalytic domain of DAPK1 (residues 1–285) (Homo sapiens, UniProt P53355); assay: Isothermal titration calorimetry (ITC); type: binding; details: n=4, read-out: equilibrium dissociation constant (Kd)
T2 construct: First the catalytic domain of DAPK1 (residues 1–285) was cloned,[14] expressed in Escherichia coli, and purified; made in house; host or cells: Escherichia coli
Protocol: as §3
Figure 3 Representative ITC of the catalytic domain of DAPK1 (residues 1–285) into 6.

T1 sequence (P53355 1-285): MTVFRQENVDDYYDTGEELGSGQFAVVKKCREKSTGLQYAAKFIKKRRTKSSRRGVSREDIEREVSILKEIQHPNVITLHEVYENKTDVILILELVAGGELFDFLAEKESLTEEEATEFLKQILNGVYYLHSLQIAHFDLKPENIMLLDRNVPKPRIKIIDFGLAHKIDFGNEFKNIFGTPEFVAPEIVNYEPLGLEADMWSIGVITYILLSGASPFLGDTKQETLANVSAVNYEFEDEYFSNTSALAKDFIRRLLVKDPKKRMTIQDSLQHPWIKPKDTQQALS
T2 sequence (P53355 1-285): as above
JAK2, sequence (O60674 whole entry, species assumed): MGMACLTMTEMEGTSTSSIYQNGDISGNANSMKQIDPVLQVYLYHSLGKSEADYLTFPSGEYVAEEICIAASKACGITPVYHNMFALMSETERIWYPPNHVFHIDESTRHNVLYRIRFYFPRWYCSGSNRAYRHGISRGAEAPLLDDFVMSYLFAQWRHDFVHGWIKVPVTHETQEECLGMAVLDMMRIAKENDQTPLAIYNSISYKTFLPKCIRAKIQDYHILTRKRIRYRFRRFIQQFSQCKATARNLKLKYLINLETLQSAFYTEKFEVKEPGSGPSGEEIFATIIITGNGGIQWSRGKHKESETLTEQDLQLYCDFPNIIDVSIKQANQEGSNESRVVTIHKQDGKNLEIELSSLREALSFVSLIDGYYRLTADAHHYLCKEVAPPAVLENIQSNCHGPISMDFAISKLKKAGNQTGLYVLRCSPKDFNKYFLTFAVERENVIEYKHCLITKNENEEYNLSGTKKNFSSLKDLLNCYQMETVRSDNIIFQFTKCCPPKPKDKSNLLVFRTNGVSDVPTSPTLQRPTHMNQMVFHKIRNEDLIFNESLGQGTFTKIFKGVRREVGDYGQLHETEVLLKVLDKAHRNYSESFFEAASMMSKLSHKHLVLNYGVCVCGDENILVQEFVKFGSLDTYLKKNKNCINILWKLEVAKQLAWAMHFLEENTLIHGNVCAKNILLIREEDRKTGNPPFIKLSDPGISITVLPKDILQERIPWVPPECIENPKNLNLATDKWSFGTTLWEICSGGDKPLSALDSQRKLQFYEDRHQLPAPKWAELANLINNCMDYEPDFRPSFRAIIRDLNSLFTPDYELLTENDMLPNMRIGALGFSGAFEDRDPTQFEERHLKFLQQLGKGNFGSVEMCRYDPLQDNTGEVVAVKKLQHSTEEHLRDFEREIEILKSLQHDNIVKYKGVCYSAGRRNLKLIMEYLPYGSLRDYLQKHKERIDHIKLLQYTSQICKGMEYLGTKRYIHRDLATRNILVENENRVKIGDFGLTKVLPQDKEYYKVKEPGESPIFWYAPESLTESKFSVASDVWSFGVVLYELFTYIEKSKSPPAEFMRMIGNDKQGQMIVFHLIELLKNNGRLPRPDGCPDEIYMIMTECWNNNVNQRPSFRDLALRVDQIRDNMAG
SRC, sequence (P12931 whole entry, species assumed): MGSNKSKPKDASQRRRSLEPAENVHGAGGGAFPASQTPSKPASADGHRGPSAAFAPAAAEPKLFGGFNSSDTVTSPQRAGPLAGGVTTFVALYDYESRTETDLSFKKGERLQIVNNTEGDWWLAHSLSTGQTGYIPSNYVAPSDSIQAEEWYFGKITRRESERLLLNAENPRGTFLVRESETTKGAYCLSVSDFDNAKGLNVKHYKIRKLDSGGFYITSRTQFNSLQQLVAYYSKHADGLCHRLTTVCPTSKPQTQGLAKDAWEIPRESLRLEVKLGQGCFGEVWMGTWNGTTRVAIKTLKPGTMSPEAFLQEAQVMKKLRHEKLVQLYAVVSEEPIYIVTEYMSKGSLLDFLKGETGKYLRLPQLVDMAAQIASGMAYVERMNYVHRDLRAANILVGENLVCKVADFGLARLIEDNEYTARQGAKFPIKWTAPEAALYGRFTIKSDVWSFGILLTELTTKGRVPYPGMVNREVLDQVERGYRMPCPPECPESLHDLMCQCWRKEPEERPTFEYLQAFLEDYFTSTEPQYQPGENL
PIM1, sequence (P11309 whole entry, species assumed): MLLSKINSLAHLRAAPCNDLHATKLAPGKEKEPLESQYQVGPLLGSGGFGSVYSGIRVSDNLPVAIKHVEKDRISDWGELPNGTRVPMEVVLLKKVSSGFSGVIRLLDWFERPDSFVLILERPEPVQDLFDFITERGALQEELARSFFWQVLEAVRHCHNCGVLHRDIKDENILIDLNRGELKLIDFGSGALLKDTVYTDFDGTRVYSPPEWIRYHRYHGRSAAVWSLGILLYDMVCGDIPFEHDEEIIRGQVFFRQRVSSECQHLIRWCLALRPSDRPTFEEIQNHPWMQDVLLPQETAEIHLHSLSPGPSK
PAK7, sequence (Q9P286 whole entry, species assumed): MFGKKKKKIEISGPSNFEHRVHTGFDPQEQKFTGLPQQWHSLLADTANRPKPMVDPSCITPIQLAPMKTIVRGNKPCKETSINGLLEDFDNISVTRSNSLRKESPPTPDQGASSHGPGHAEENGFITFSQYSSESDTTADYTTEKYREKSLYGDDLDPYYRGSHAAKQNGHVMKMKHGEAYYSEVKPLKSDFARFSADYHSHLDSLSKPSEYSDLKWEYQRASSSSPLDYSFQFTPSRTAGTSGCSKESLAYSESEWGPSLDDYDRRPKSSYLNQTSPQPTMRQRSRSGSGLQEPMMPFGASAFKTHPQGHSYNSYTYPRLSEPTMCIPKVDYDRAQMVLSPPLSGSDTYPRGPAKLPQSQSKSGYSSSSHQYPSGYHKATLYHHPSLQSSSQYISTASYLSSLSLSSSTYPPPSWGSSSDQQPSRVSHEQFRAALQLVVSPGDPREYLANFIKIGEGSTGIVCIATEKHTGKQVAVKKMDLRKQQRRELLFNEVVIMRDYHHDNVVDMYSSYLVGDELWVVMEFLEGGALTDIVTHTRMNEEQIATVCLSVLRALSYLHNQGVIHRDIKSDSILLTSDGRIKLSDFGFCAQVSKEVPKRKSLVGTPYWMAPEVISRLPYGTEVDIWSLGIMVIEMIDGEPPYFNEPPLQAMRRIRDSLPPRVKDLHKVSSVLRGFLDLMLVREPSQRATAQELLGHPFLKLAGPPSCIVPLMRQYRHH

Compound	phosphorylation by DAPK1 (peptide as substrate) [1]	phosphorylation by CaMKII (peptide as substrate) [2]	also measured
KKNRKKNRNKLRRQHSYDTFVDLQKEE [Peptide 2, 23-mer GluN2B peptide with ten additional C-terminal amino acids]	phosphorylation to a degree similar to that for the reference substrate	neither the longer GluN2B peptide, N2B23 (2), nor its Ala mutant, 3, was phosphorylated	–
QKNKLRISRQHSYDNIVDKPREL [Peptide 5, 23-mer GluN2A peptide]	none of these peptides was phosphorylated	phosphorylated at a similar rate and to the same degree as the control peptide	–
Nc1ncnc2c1ncn2[C@@H]1O[C@H](COP(=O)(O)OP(=O)(O)OP(=O)(O)O)[C@@H](O)[C@H]1O [ATP]	–	–	Km ([3]; DAPK1, read-out: Km for ATP): 1.24 µM
QKNKLRISRQHSY [Peptide 4, 13-mer GluN2A peptide]	none of these peptides was phosphorylated	phosphorylated at a similar rate and to the same degree as the control peptide	–
KKRPQRRYSNVF [peptide38, reference compound]	excellent substrate	–	–
COc1cc(-c2ccc3ncc(-c4cccc(C(=O)NCCN(C)C)c4)n3n2)ccc1O [Compound 6]	–	–	IC50 ([3]; DAPK1, Caliper assay, 5FAM-Peptide38 substrate, ATP approximately 2×Km): 247 nM; IC50 [4]: 1600 nM; IC50 [5]: 1800 nM; IC50 [6]: 5600 nM; IC50 [7]: 150 nM; primary screening [8]: did not to pass the primary screening; Kd [9]: 240 ± 90 nM; inhibition in the in vitro phosphorylation assay ([1]; DAPK1): showed inhibition
KKNRNKLRQHSY [Peptide 1, 13-mer peptide N2B13, GluN2B1292–1304]	strongly repressed	phosphorylated in a similar manner	inhibitory effect on phosphorylation of peptide 2 ([1]; DAPK1, in vitro, data not shown): no in vitro inhibitory effect; also recorded: did not observe any effect
KKNRKKNRNKLRRQHAYDTFVDLQKEE [Peptide 3, N2B23 with Ser1303 substituted with Ala]	prevented phosphorylation	neither the longer GluN2B peptide, N2B23 (2), nor its Ala mutant, 3, was phosphorylated	–
